Measured values from ChEMBL document CHEMBL5634141 (Eur J Med Chem, 2023).
pIC50: −log10 of the molar value. Activity calls are given as the source filed them. No cut-off for these calls is given here.

What was measured:
[1] = test system: NCI-H358; assay: Antiproliferative activity against human NCI-H358 cells expressing KRAS G12C mutant assessed as inhibition of cell growth incubated for 72 hrs by CCK-8 assay; type: functional, cell-based; details: NCI-H358, 72 h
[2] = test system: MIA PaCa-2; assay: Antiproliferative activity against human MIA PaCa-2 cells expressing KRAS G12C mutant assessed as inhibition of cell growth incubated for 72 hrs by CCK-8 assay; type: functional, cell-based; details: MIA PaCa-2, 72 h
[3] = test system: ASPC1; assay: Antiproliferative activity against human ASPC1 cells expressing KRAS G12D mutant assessed as inhibition of cell growth incubated for 72 hrs by CCK-8 assay; type: functional, cell-based; details: ASPC1, 72 h
[4] = Cytotoxicity against HEK293T cells assessed as inhibition of cell growth incubated for 72 hrs by CCK-8 assay; type: toxicity, cell-based, HEK-293T; details: human
[5] = test system: HepG2; assay: Antiproliferative activity against human HepG2 cells expressing KRAS assessed as inhibition of cell growth incubated for 72 hrs by CCK-8 assay; type: functional, cell-based; details: HepG2, 72 h
[6] = test system: NCI-H358; assay: Antiproliferative activity against human NCI-H358 cells expressing KRAS G12C mutant assessed as relative cell viability at 100 nM incubated for 72 hrs by CCK-8 assay; type: functional; details: read-out: Activity
[7] = test system: Calu-1; assay: Antiproliferative activity against human Calu-1 cells expressing KRAS G12C mutant assessed as relative cell viability at 100 nM incubated for 72 hrs by CCK-8 assay; type: functional; details: read-out: Activity
[8] = test system: NCI-H23; assay: Antiproliferative activity against human NCI-H23 cells expressing KRAS G12C mutant assessed as relative cell viability at 100 nM incubated for 72 hrs by CCK-8 assay; type: functional; details: read-out: Activity
[9] = test system: SW837; assay: Antiproliferative activity against human SW837 cells expressing KRAS G12C mutant assessed as relative cell viability at 100 nM incubated for 72 hrs by CCK-8 assay; type: functional; details: read-out: Activity
[10] = test system: MIA PaCa-2; assay: Antiproliferative activity against human MIA PaCa-2 cells expressing KRAS G12C mutant assessed as relative cell viability at 100 nM incubated for 72 hrs by CCK-8 assay; type: functional; details: read-out: Activity
[11] = AUC (0 to infinity) in ICR mouse at 2 mg/kg, iv measured after 24 hrs by LC-MS/MS analysis; type: ADME, organism-based; details: in vivo
[12] = Cmax in ICR mouse at 30 mg/kg, ip measured after 24 hrs by LC-MS/MS analysis; type: ADME, organism-based; details: in vivo
[13] = test system: MIA PaCa-2; assay: Inhibition of RAF-MEK-ERK pathway in human MIA PaCa-2 cells assessed as decrease in ERK phosphorylation at 100 nM incubated for 6 to 8 days by Western blot analysis; type: cell-based; details: time 6-8 day
[14] = test system: NCI-H358; assay: Inhibition of RAF-MEK-ERK pathway in human NCI-H358 cells assessed as decrease in ERK phosphorylation at 100 nM incubated for 6 to 8 days by Western blot analysis; type: cell-based; details: time 6-8 day
[15] = Volume of distribution at steady state in ICR mouse at 2 mg/kg, iv measured after 24 hrs by LC-MS/MS analysis; type: ADME, organism-based; details: in vivo
[16] = AUC (0 to infinity) in ICR mouse at 30 mg/kg, ip measured after 24 hrs by LC-MS/MS analysis; type: ADME, organism-based; details: in vivo
[17] = Half life in ICR mouse at 2 mg/kg, iv measured after 24 hrs by LC-MS/MS analysis; type: ADME, organism-based; details: in vivo
[18] = Half life in ICR mouse at 30 mg/kg, ip measured after 24 hrs by LC-MS/MS analysis; type: ADME, organism-based; details: in vivo
[19] = Clearance in ICR mouse at 2 mg/kg, iv measured after 24 hrs by LC-MS/MS analysis; type: ADME, organism-based; details: in vivo
[20] = Tmax in ICR mouse at 30 mg/kg, ip measured after 24 hrs by LC-MS/MS analysis; type: ADME, organism-based; details: in vivo
[21] = Inhibition of PI3K-AKT-mTOR pathway in human MIA PaCa-2 cells assessed as decrease in […] phosphorylation at 100 nM incubated for 6 to 8 days by Western blot analysis; type: cell-based; details: time 6-8 day
[22] = AUC (0 to t) in ICR mouse at 2 mg/kg, iv measured after 24 hrs by LC-MS/MS analysis; type: ADME, organism-based; details: in vivo
[23] = Inhibition of PI3K-AKT-mTOR pathway in human NCI-H358 cells assessed as decrease in […] phosphorylation at 100 nM incubated for 6 to 8 days by Western blot analysis; type: cell-based; details: time 6-8 day
[24] = Cmax in ICR mouse at 2 mg/kg, iv measured after 24 hrs by LC-MS/MS analysis; type: ADME, organism-based; details: in vivo
[25] = AUC (0 to t) in ICR mouse at 30 mg/kg, ip measured after 24 hrs by LC-MS/MS analysis; type: ADME, organism-based; details: in vivo

SMILES | pIC50 [1] | pIC50 [2] | pIC50 [3] | pIC50 [5] | IC50 at 72 h [4] [nM] | further results
C=CC(=O)N1CCN(c2nc(=O)n(-c3c(C)ccnc3C(C)C)c3nc(-c4c(F)cccc4OCc4cn(CC(=O)N[C@H](C(=O)N5C[C@H](O)C[C@H]5C(=O)NCc5ccc(-c6scnc6C)cc5)C(C)(C)C)nn4)c(F)cc23)[C@@H](C)C1 | 6.25 | 6.28 | < 5.00 | < 5.00 | > 10000 | 
C=CC(=O)N1CCN(c2nc(=O)n(-c3c(C)ccnc3C(C)C)c3nc(-c4c(F)cccc4OCc4cn(CCCCC(=O)N[C@H](C(=O)N5C[C@H](O)C[C@H]5C(=O)NCc5ccc(-c6scnc6C)cc5)C(C)(C)C)nn4)c(F)cc23)[C@@H](C)C1 | 6.33 | 6.18 | < 5.00 | < 5.00 | > 10000 | 
CCN1CCN(c2ccc(Nc3cc(N(C)C(=O)Nc4c(Cl)c(OC)cc(OC)c4Cl)ncn3)cc2)CC1 [INFIGRATINIB] |  |  |  |  |  | viability at 0.1 µM [6]: 0.88%; viability at 0.1 µM [7]: 0.86%; viability at 0.1 µM [8]: 0.89%; viability at 0.1 µM [9]: 0.85%; viability at 0.1 µM [10]: 0.84%
C=CC(=O)N1CCN(c2nc(=O)n(-c3c(C)ccnc3C(C)C)c3nc(-c4c(F)cccc4OCCOCC(=O)Nc4cccc5c4CN(C4CCC(=O)NC4=O)C5=O)c(F)cc23)[C@@H](C)C1 (stereo not given in full) | 6.20 | 6.36 | < 5.00 | < 5.00 | > 10000 | 
C=CC(=O)N1CCN(c2nc(=O)n(-c3c(C)ccnc3C(C)C)c3nc(-c4c(F)cccc4OCc4cn(CCCC(=O)N[C@H](C(=O)N5C[C@H](O)C[C@H]5C(=O)NCc5ccc(-c6scnc6C)cc5)C(C)(C)C)nn4)c(F)cc23)[C@@H](C)C1 | 6.43 | 6.31 | < 5.00 | < 5.00 | > 10000 | 

The remaining compounds from weak to strong by pIC50 [1], led by results:

pIC50 [1] | pIC50 [2] | pIC50 [3] | pIC50 [5] | SMILES | IC50 at 72 h [4] [nM] | further results
6.60 | 6.76 | < 5.00 | < 5.00 | C=CC(=O)N1CCN(c2nc(=O)n(-c3c(C)ccnc3C(C)C)c3nc(-c4c(F)cccc4OCCN4CCN(CCC(=O)N[C@H](C(=O)N5C[C@H](O)C[C@H]5C(=O)NCc5ccc(-c6scnc6C)cc5)C(C)(C)C)CC4)c(F)cc23)[C@@H](C)C1 | > 10000 | 
6.63 | 6.47 | < 5.00 | < 5.00 | C=CC(=O)N1CCN(c2nc(=O)n(-c3c(C)ccnc3C(C)C)c3nc(-c4c(F)cccc4OCCN4CCN(CCCC(=O)N[C@H](C(=O)N5C[C@H](O)C[C@H]5C(=O)NCc5ccc(-c6scnc6C)cc5)C(C)(C)C)CC4)c(F)cc23)[C@@H](C)C1 | > 10000 | 
7.92 | 7.74 | < 5.00 | < 5.00 | C=CC(=O)N1CCN(c2nc(=O)n(-c3c(C)ccnc3C(C)C)c3nc(-c4c(O)cccc4F)c(F)cc23)[C@@H](C)C1 [SOTORASIB] | > 10000 | AUC [11]: 312 ng·h/mL; Cmax [12]: 9840 ng/mL; inhibition [13]: inactive; inhibition [14]: inactive; Vdss [15]: 1.62 L/kg; AUC(0-inf) [16]: 9450 ng·h/mL; t1/2 [17]: 15.1 min; half-life [18]: 238 min; clearance [19]: 110 mL/min/kg; Tmax [20]: 15 min; inhibition [21]: inactive; AUC(0-t) at 24 h [22]: 311 ng·h/mL; inhibition [23]: inactive; Cmax [24]: 863 ng/mL; AUC(0-t) at 24 h [25]: 9440 ng·h/mL
